US20120122956A1, “METHODS FOR INHIBITING AN[…] MULTI-ARM POLYMERIC CONJUGATES OF 7-ETHYL-10-HYDROXYCAMPTOTHECIN” (ENZON PHARMACEUTICALS, INC., priority 2009, published 2012)

Key:
[1] = Pharmacokinetics in tumor free Balb/C mice; type: in vivo
Procedure: Tumor free Balb/C mice were injected with a single injection of 20 mg/kg 4armPEG-Gly-(7-ethyl-10-hydroxycamptothecin) conjugates. At various time points mice were sacrificed and plasma was analyzed for intact conjugates and released 7-ethyl-10-hydroxycamptothecin by HPLC. Pharmacokinetic analysis was done using non-compartmental analysis (WinNonlin).

[2] = Solubility in aqueous saline solution; type: physicochemical
[3] = Pharmacokinetics in rats; type: in vivo
Procedure: Additionally, pharmacokinetic profiles of 4arm PEG-Gly-(7-ethyl-10-hydroxycamptothecin) were investigated in rats. In rats, dose levels of 3, 10 and 30 mg/kg (7-ethyl-10-hydroxycamptothecin equivalent) were used. The pharmacokinetic profiles in rats were consistent with those of mice.

[4] = system: U251-HRE xenografts; details: zero to 125 hours of treatment (FIG. 13)
From the text: (§1) The human glioma cell line, U251-HRE was kindly provided by Dr. Giovanni Melillo at National Cancer Institute (Frederick, Md., United States). The cells were transfected with luciferase reporter plasmids containing three copies of a canonical hypoxia response element (HRE) from the inducible nitric oxide synthase gene (Rapsirada, et al. 2000). U251-HRE tumors were established in the right axillary flank of female Harlan Sprague-Dawley nude mice (Harlan World, Indianapolis, Ind.) by subcutaneous injection of 1×10^7 U251-HRE cells/mouse. […] At each treatment time point, the tumor volume measurements were recorded and the tumor weights (mg) calculated using mg=[tumor length×(tumor width)]/2. […] To do so, the mice were injected intraperineally with 150 mg/kg of D-luciferin Firefly, potassium salt (Biosynth International, Inc., Itasca, Ill.). After 10 minutes, the mice were anesthetized via isofluorane gas and imaged using the Xenogen IVIS 100 Imaging Station (Xenogen Corp., Alameda, Calif.).

[5] = system: CAMs grafted with tumor biopsy specimens of HTLA-230 or GI-LI-N xenografts; details: for number of allantoic vessels radiating towards the tumor specimen: compared to control CAMs, CPT-11 10 or 40 mg/kg, compound 9 10 mg/kg (SN38 based)
Procedure: Protoc. 2006, 1:85-91. Mice were injected with the human NB cell line, HTLA-230 or GI-LI-N. Tumor biopsy specimens in size of 1-2 mm^3 were obtained from the xenografted mice and then grafted onto the CAMs. […] In the control group, the CAMs were incubated with PBS buffer. […] The CAMs were examined daily for 12 days and photographed in ovo with a stereomicroscope equipped with a camera and image analyzer system (Olympus Italia, Italy). CD31-positive microvessels were measured and normalized with that of the control group. Less CD31-positive microvessels mean greater antiangiogenic effects. Microvessel density was represented by the percentage of the total number of intersection points occupied by CD31-positive vessels cut transversely (diameter of 3-10 μm). Mean values±SD were determined for each analysis.

[6] = system: HIF-1α; assay: HIF-1-dependent luciferase expression in U251-HRE human glioma xenografts; type: in vivo, mice; details: for luminescence (HIF-1-dependent luciferase): single dose or multiple doses, 48 hour and 120 hour time points, not normalized
Procedure: The effect was measured by HIF-1-dependent luciferase expression in the U251-HRE xenografts.
as §1

[7] = 7-ethyl-10-hydroxycamptothecin formation from conjugates in rat plasma; type: in vitro ADME
[8] = 7-ethyl-10-hydroxycamptothecin formation from conjugates in mouse plasma; type: in vitro ADME
[9] = Hydrolysis in human plasma (conjugate half life, 7-ethyl-10-hydroxycamptothecin formation); type: in vitro ADME
Procedure: In human plasma, 7-ethyl-10-hydroxycamptothecin was steadily released from the PEG conjugates with a doubling time of 22 to 52 minutes and the release appeared to be pH and concentration dependent as described in the following EXAMPLE 24.

[10] = system: human neuroblastoma cells (GI-LI-N) xenograft tumors; details: compared to mice treated with CAMPTOSAR; 10 mg/kg i.v. q2d×5
Procedure: (§2) Xenograft tumors were established in mice by injecting human neuroblastoma cells (GI-LI-N) in the adrenal gland at day 0 (T0). […] The control group mice received HEPES-buffered saline solution. Histological examination was performed on the tumors removed from the mice at day 44 (T44).
The tissue sections removed from the treated mice in Example 27 were immunostained with TUNEL to evaluate apoptosis, and with primary antibody against histone H2ax (H2AFX) to evaluate DNA-damage dependent histone phosphorylation.

[11] = system: HIF-2α; details: GI-LI-N, HTLA-230, SH-SY5Y cells, 24 and 48 hours
Procedure: (§3) The cancer cells were grown in complete DMEM or RPMI-1640 medium, supplemented with 10% heat-inactivated FCS, as described in Pastorino F. et al., Cancer Res. 2006, 66:10073-82, 2006; Pastorino F. et al., Clin. Cancer Res. 2008, 14:7320-9; and Brignole C, et al., J. Nat'l. Cancer Inst. 2006, 98:1142-57). […] In some experiments (FIGS. 14(B) and (C)), the cancer cells were pre-incubated with 0.15 mM of Desferal (DFX or Deferoxamine purchased from Novartis Pharma in Stein, Swizerland) for 6 hours to induce HIF-1α. […] The cells were collected and western blotting analysis was performed using cell lysates as described in Pagnan G. et al., Clin. Cancer Res. 2009, 15:1199-209). Monoclonal anti-p53 (clone PAb 1801) and anti-HIF-1α (clone 54) were purchased from BD Biosciences (Buccinasco, Mich., Italy). Anti-HIF-2α (clone ep190b), and an anti-GAPDH (clone 14c10) antibodies were from Novus Biologicals, Inc (Cambridge, UK) and Cell Signaling Technology (Danvers, Mass., US), respectively.

[12] = system: HIF-1α
Procedure: as §3

[13] = system: human neuroblastoma cells (GI-LI-N) xenograft tumors; assay: Tumor angiogenesis and invasion in orthotopic GI-LI-N xenografted mice (VEGF, CD31, MMP-2, MMP-9 staining); type: in vivo
Procedure: as §2
The tissue sections were stained with antibodies against VEGF and CD31 to evaluate inhibition of angiogenesis. […] Cell nuclei were stained with DAPI. Morphometric analysis was performed on 9 randomly selected fields every 3 sections, observed at 200× magnification with an Olympus photomicroscope, using Image Analysis software (Olympus Italia). […] The sections were then washed twice in PBS and saturated with 2% BSA in PBS. In the morphometric analysis, the mean value in each image from the section, the final mean value for all the images and the SEM were calculated. The statistical significance of the differences between the mean values of the different experimental conditions was determined by Student's t test (GraphPad software). Findings were considered significant at P values <0.05 for all statistical evaluations.

[14] = 7-ethyl-10-hydroxycamptothecin released from Compound 9, single injection 20 mg/kg of conjugate
[15] = released 7-ethyl-10-hydroxycamptothecin
[16] = multiple doses at MTD (q2d×3, day 0, 2, 4; compound 9 10 mg/kg, CPT-11 40 mg/kg), 120 hours
[17] = 10 mg/kg i.v. q2d×5, tumors removed day 44
[18] = significantly when compared to Camptosar (P<0.05), 10 mg/kg i.v. q2d×5

Compound: CCc1c2c(nc3ccc(O)cc13)-c1cc3c(c(=O)n1C2)COC(=O)[C@]3(O)CC [7-ethyl-10-hydroxycamptothecin]
- AUC [1, 14]: 98300 ng·h/mL
- CL [1, 14]: 3.37 mL/min/kg
- Cmax [1, 14]: 13200 ng/mL
- Terminal t1/2 [1, 14]: 14.2 h
- Vss [1, 14]: 3.094 L/kg
- terminal elimination half-life ([1]; 7-ethyl-10-hydroxycamptothecin released from the conjugate, mice): 18 to 26 h
- Enterohepatic circulation ([1]; released 7-ethyl-10-hydroxycamptothecin, mice): observed
- Solubility in Saline [2]: ^a7-ethyl-10-hydroxycamptothecin is not soluble in saline.
- apparent elimination half life ([3]; 7-ethyl-10-hydroxycamptothecin released from 4armPEG-Gly conjugate): 21 to 22 h
- Enterohepatic circulation [3, 15]: observed
- clearance [3, 15]: 2.18 mL/min/kg
- estimated Vss [3, 15]: 2.384 L/kg

Compound: CCc1c2c(nc3ccc(OC(=O)N4CCC(N5CCCCC5)CC4)cc13)-c1cc3c(c(=O)n1C2)COC(=O)[C@]3(O)CC [CPT-11, reference compound]
- tumor mass [4]: reduced
- number of allantoic vessels radiating towards the tumor specimen [5]: decreased
- downregulation of HIF-1α (luminescence normalized for tumor mass, change from baseline) ([6]; multiple doses (q2d×3, CPT-11 40 mg/kg), 48 hours): 15%
- downregulation of HIF-1α (luminescence normalized for tumor mass, change from baseline) [6, 16]: 32%
- luminescence (HIF-1-dependent luciferase) [6]: minimal effect
- downregulation of HIF-1α ([6]; single injection (qd×1, CPT-11 80 mg/kg)): no downregulation

Compound: ^40K4arm-PEG-Sar-(20)-(7-ethyl-10-hydroxycamptothecin) [Compound 23]
- Doubling Time in Plasma, Rat (7-ethyl-10-hydroxycamptothecin formation rate from conjugates) [7]: 481 min
- Doubling Time in Plasma, Mouse (7-ethyl-10-hydroxycamptothecin formation rate from conjugates) [8]: 43.4 min
- Doubling Time in Plasma, Human (7-ethyl-10-hydroxycamptothecin formation rate from conjugates) [9]: 28.8 min
- t1/2 in Human Plasma (PEG conjugate half life) [9]: 0.317 h

Compound: ^40k4arm-PEG-Ala-(20)-(7-ethyl-10-hydroxycamptothecin) [Compound 12]
- Doubling Time in Plasma, Rat (7-ethyl-10-hydroxycamptothecin formation rate from conjugates) [7]: 753 min
- Solubility in Saline [2]: 121 mg/mL
- Doubling Time in Plasma, Mouse (7-ethyl-10-hydroxycamptothecin formation rate from conjugates) [8]: 45.8 min
- Doubling Time in Plasma, Human (7-ethyl-10-hydroxycamptothecin formation rate from conjugates) [9]: 51.9 min
- t1/2 in Human Plasma (PEG conjugate half life) [9]: 0.208 h

Compound: ^40k4arm-PEG-Gly(20)-(7-ethyl-10-hydroxycamptothecin) [Compound 9]
- Histone H2ax staining in tumor tissues [10]: enhanced
- TUNEL staining in tumor tissues (apoptosis) [10]: enhanced
- tumor mass [4]: reduced
- expression of HIF-2α protein [11]: inhibited
- constitutive HIF-1α protein levels ([12]; human neuroblastoma cells, 24 hours (FIG. 14B)): decreased
- DFX-induced HIF-1α protein levels ([12]; pre-incubated with 0.15 mM Desferal 6 hours, then treated 24 hours (FIG. 14C)): decreased
- CD31 expression in primary NB tumors [13, 17]: inhibited
- VEGF expression in primary NB tumors [13, 17]: inhibited
- number of CD31-positive endothelial cells ([13]; compared to mice treated with CAMPTOSAR, P<0.05, 10 mg/kg i.v. q2d×5): decreased
- MMP-2 expression [13, 18]: inhibited
- MMP-9 expression [13, 18]: inhibited
- number of allantoic vessels radiating towards the tumor specimen [5]: decreased
- number of radiating vessels which invade the tumor specimen ([5]; compound 9 compared to CPT-11, P<0.01): much less
- downregulation of HIF-1α (luminescence normalized for tumor mass, change from baseline) [6, 16]: 93%
- downregulation of HIF-1α (luminescence normalized for tumor mass, change from baseline) ([6]; single dose (qd×1, compound 9 30 mg/kg), 48 hours): 37%
- downregulation of HIF-1α (luminescence normalized for tumor mass, change from baseline) ([6]; single dose (qd×1, compound 9 30 mg/kg), 120 hours): 83%
- luminescence (HIF-1-dependent luciferase) [6]: diminished luminescence

Compound: ^40k4arm-PEG-Met-(20)-(7-ethyl-10-hydroxycamptothecin) [Compound 18]
- Doubling Time in Plasma, Rat (7-ethyl-10-hydroxycamptothecin formation rate from conjugates) [7]: 1920 min
- Solubility in Saline [2]: 142 mg/mL
- Doubling Time in Plasma, Mouse (7-ethyl-10-hydroxycamptothecin formation rate from conjugates) [8]: 41.9 min
- Doubling Time in Plasma, Human (7-ethyl-10-hydroxycamptothecin formation rate from conjugates) [9]: 22.2 min
- t1/2 in Human Plasma (PEG conjugate half life) [9]: 0.447 h
